Experimental data as given in patent publication US5698411A, “Method for determining activity of enzymes in metabolically active whole cells” (priority 1995, dated 1997).
Numbered stars: 1 amine (or outer) side, 2 acyl side, 3 side chain; on linkers, the order of the positions; unused ones are H or OH. Bridge positions count the residues as written; N and C are the ends. Peptide text beside a SMILES is read from it. I, II: the chains in the order shown. Rhodamine110 = O=C1OC2(c3ccc(N[*:1])cc3Oc3cc(N[*:2])ccc32)c2ccccc21

Experiments:
Type in all cases: cell-based, human
lymphocytes [1] = assay: enzyme activity with fluorogenic substrate, normal lymphocytes (Table 3A)
monocytes [2] = assay: enzyme activity with fluorogenic substrate, normal monocytes (Table 3A)
granulocytes [3] = assay: enzyme activity with fluorogenic substrate, normal granulocytes (Table 3A)
lymphocytes [4] = assay: aberrant enzyme activities in febrile children, lymphocytes (Table 7)
monocytes [5] = assay: aberrant enzyme activities in febrile children, monocytes (Table 7)
granulocytes [6] = assay: aberrant enzyme activities in febrile children, granulocytes (Table 7)
[7] = P95 Viral Syndrome, listed as Val/Lys-M
[8] = P96 Viral Syndrome, listed as Val/Lys-M
[9] = P97 Pyelonephritis, listed as Val/Lys-M
[10] = P89 Viral Stomatitis, listed as Val/Lys-M
[11] = P88 Enteritis, listed as Z-Gly/Pro-M

Row | SMILES | NORMAL LEUKOCYTE ENZYME ACTIVITY LYMPHS Mean (lymphocytes [1]) | NORMAL LEUKOCYTE ENZYME ACTIVITY MONOS Mean (monocytes [2]) | NORMAL LEUKOCYTE ENZYME ACTIVITY GRANS Mean (granulocytes [3]) | aberrant enzyme activity, LYMPHS (lymphocytes [4]; P92 Adenitis) | aberrant enzyme activity, LYMPHS (lymphocytes [4]; P97 Pyelonephritis) | aberrant enzyme activity, LYMPHS (lymphocytes [4]; P103 Viral Syndrome) | aberrant enzyme activity, MONOS (monocytes [5]; P92 Adenitis) | aberrant enzyme activity, MONOS (monocytes [5]; P97 Pyelonephritis) | aberrant enzyme activity, MONOS (monocytes [5]; P103 Viral Syndrome) | aberrant enzyme activity, GRANS (granulocytes [6]; P92 Adenitis) | aberrant enzyme activity, GRANS (granulocytes [6]; P97 Pyelonephritis) | aberrant enzyme activity, GRANS (granulocytes [6]; P103 Viral Syndrome) | aberrant enzyme activity, LYMPHS (lymphocytes [4]; P88 Enteritis) | aberrant enzyme activity, LYMPHS (lymphocytes [4]; P89 Viral Stomatitis) | aberrant enzyme activity, MONOS (monocytes [5]; P88 Enteritis) | aberrant enzyme activity, GRANS (granulocytes [6]; P88 Enteritis) | aberrant enzyme activity, MONOS (monocytes [5]; P89 Viral Stomatitis) | further results
1 | CC(C)[C@H](N)C(=O)N[C@@H](CCCCN)C(=O)Nc1ccc2c(c1)Oc1cc(NC(=O)[C@H](CCCCN)NC(=O)[C@@H](N)C(C)C)ccc1C21OC(=O)c2ccccc21 [VK-M, (Val-Lys)2 Rho 110 (modified)] | 2.05 | 43.37 | 4.31 | .smallcircle. |  | .smallcircle. |  | .smallcircle. |  | .smallcircle. |  | .smallcircle. | .smallcircle. | .smallcircle. | - (>0.25 Decrease over normal range) | - (>0.25 Decrease over normal range) |  | aberrant enzyme activity, LYMPHS (lymphocytes [4]; [7]): + (>0.25 Increase over normal range); aberrant enzyme activity, LYMPHS (lymphocytes [4]; [8]): + (>0.25 Increase over normal range); aberrant enzyme activity, LYMPHS (lymphocytes [4]; [9]): + (>0.25 Increase over normal range); aberrant enzyme activity, LYMPHS (lymphocytes [4]; P101 Fever -- Unknown Origin): .smallcircle.; aberrant enzyme activity, LYMPHS (lymphocytes [4]; P102 UTI): .smallcircle.; aberrant enzyme activity, MONOS (monocytes [5]; [10]): .smallcircle.; aberrant enzyme activity, MONOS (monocytes [5]; P92 Adenitis, listed as Val/Lys-M): - (>0.25 Decrease over normal range); aberrant enzyme activity, MONOS (monocytes [5]; P95 Viral Syndrome): .smallcircle.; aberrant enzyme activity, MONOS (monocytes [5]; P96 Viral Syndrome): .smallcircle.; aberrant enzyme activity, MONOS (monocytes [5]; P101 Fever -- Unknown Origin, listed as Val/Lys-M): - (>0.25 Decrease over normal range); aberrant enzyme activity, MONOS (monocytes [5]; P102 UTI): - (>0.25 Decrease over normal range); aberrant enzyme activity, MONOS (monocytes [5]; P103 Viral Syndrome, listed as Val/Lys-M): .smallcircle.; aberrant enzyme activity, GRANS (granulocytes [6]; [10]): .smallcircle.; aberrant enzyme activity, GRANS (granulocytes [6]; [7]): + (>0.25 Increase over normal range); aberrant enzyme activity, GRANS (granulocytes [6]; [8]): + (>0.25 Increase over normal range); aberrant enzyme activity, GRANS (granulocytes [6]; [9]): .smallcircle.; aberrant enzyme activity, GRANS (granulocytes [6]; P101 Fever -- Unknown Origin): .smallcircle.; aberrant enzyme activity, GRANS (granulocytes [6]; P102 UTI, listed as Val/Lys-M): - (>0.25 Decrease over normal range)
2 | C[C@H](NC(=O)CNC(=O)[C@H](Cc1ccccc1)NC(=O)CN)C(=O)Nc1ccc2c(c1)Oc1cc(NC(=O)[C@H](C)NC(=O)CNC(=O)[C@H](Cc3ccccc3)NC(=O)CN)ccc1C21OC(=O)c2ccccc21 [GFGA, (Gly-Phe-Gly-Ala)2 Rho 110] (I: H-GFGA / II: H-GFGA; linker I:C-II:C via Rhodamine110) | 0.36 | 1.01 | 1.00 | .smallcircle. | .smallcircle. | .smallcircle. | .smallcircle. | .smallcircle. | .smallcircle. | .smallcircle. | .smallcircle. | .smallcircle. | .smallcircle. | .smallcircle. | .smallcircle. | .smallcircle. | .smallcircle. | aberrant enzyme activity, GRANS (granulocytes [6]; P89 Viral Stomatitis): .smallcircle.

The next lines start with results.

Row | NORMAL LEUKOCYTE ENZYME ACTIVITY LYMPHS Mean (lymphocytes [1]) | NORMAL LEUKOCYTE ENZYME ACTIVITY MONOS Mean (monocytes [2]) | NORMAL LEUKOCYTE ENZYME ACTIVITY GRANS Mean (granulocytes [3]) | aberrant enzyme activity, LYMPHS (lymphocytes [4]; P92 Adenitis) | aberrant enzyme activity, LYMPHS (lymphocytes [4]; P97 Pyelonephritis) | aberrant enzyme activity, LYMPHS (lymphocytes [4]; P103 Viral Syndrome) | aberrant enzyme activity, MONOS (monocytes [5]; P92 Adenitis) | aberrant enzyme activity, MONOS (monocytes [5]; P97 Pyelonephritis) | aberrant enzyme activity, MONOS (monocytes [5]; P103 Viral Syndrome) | aberrant enzyme activity, GRANS (granulocytes [6]; P92 Adenitis) | aberrant enzyme activity, GRANS (granulocytes [6]; P97 Pyelonephritis) | aberrant enzyme activity, GRANS (granulocytes [6]; P103 Viral Syndrome) | SMILES | aberrant enzyme activity, LYMPHS (lymphocytes [4]; P88 Enteritis) | aberrant enzyme activity, LYMPHS (lymphocytes [4]; P89 Viral Stomatitis) | aberrant enzyme activity, MONOS (monocytes [5]; P88 Enteritis) | aberrant enzyme activity, GRANS (granulocytes [6]; P88 Enteritis) | aberrant enzyme activity, MONOS (monocytes [5]; P89 Viral Stomatitis) | further results
3 | 20.62 | 45.70 | 55.07 | - (>0.25 Decrease over normal range) | .smallcircle. | .smallcircle. | - (>0.25 Decrease over normal range) | .smallcircle. | .smallcircle. | - (>0.25 Decrease over normal range) | .smallcircle. | .smallcircle. | C[C@@H](O)[C@H](NC(=O)OCc1ccccc1)C(=O)N1CCC[C@H]1C(=O)Nc1ccc2c(c1)Oc1cc(NC(=O)[C@@H]3CCCN3C(=O)[C@@H](NC(=O)OCc3ccccc3)[C@@H](C)O)ccc1C21OC(=O)c2ccccc21 [Z-TP6.5M] |  |  |  |  |  | 
4 | 30.99 | 71.45 | 80.16 | - (>0.25 Decrease over normal range) | .smallcircle. | .smallcircle. | - (>0.25 Decrease over normal range) | .smallcircle. | .smallcircle. | - (>0.25 Decrease over normal range) | .smallcircle. | .smallcircle. | C[C@@H](O)[C@H](NC(=O)OCc1ccccc1)C(=O)N1CCC[C@H]1C(=O)Nc1ccc2c(c1)Oc1cc(NC(=O)[C@@H]3CCCN3C(=O)[C@@H](NC(=O)OCc3ccccc3)[C@@H](C)O)ccc1C21OC(=O)c2ccccc21 [Z-TP 8.7-M] |  |  |  |  |  | 
5 | 53.74 | 119.81 | 130.62 | - (>0.25 Decrease over normal range) |  | - (>0.25 Decrease over normal range) | - (>0.25 Decrease over normal range) | .smallcircle. | .smallcircle. | - (>0.25 Decrease over normal range) | .smallcircle. | .smallcircle. | O=C(NCC(=O)N1CCC[C@H]1C(=O)Nc1ccc2c(c1)Oc1cc(NC(=O)[C@@H]3CCCN3C(=O)CNC(=O)OCc3ccccc3)ccc1C21OC(=O)c2ccccc21)OCc1ccccc1 [Z-GP-M, (carbobenzyloxycarbonyl-Gly-Pro)2 Rho 110 (modified)] |  | - (>0.25 Decrease over normal range) |  |  | .smallcircle. | aberrant enzyme activity, LYMPHS (lymphocytes [4]; [11]): - (>0.25 Decrease over normal range); aberrant enzyme activity, LYMPHS (lymphocytes [4]; P97 Pyelonephritis, listed as Z-Gly/Pro-M): - (>0.25 Decrease over normal range); aberrant enzyme activity, MONOS (monocytes [5]; [11]): - (>0.25 Decrease over normal range); aberrant enzyme activity, GRANS (granulocytes [6]; [11]): - (>0.25 Decrease over normal range)
